Experimental findings from patent US7947305B2, “Fat-soluble drug composition” (Riken Vitamin Co., Ltd., priority 2005, dated 2011) are described below.

This series is described as follows: HLB value of emulsifiers. The series is classed as physicochemical. The note with it: emulsifier raw material. Here is the method:
The HLB value (Hydrophile Lipophile Balance) refers to a value showing hydrophilicity of a surfactant. This is an index representing the balance of the lipophilicity and hydrophilicity of the object compound, which is determined as a relative value to an HLB value for a hypothetical compound, generally an ethylene oxide adduct-type nonionic surfactant having an infinite long hydrophilic group attached to a lipophilic group and having the maximum hydrophilicity, which is set to 20, and to an HLB value for a lipophilic compound having no hydrophilic group, which is set to 0.

`CCCCCCCC/C=C\CCCCCCCC(=O)OCC(O)CO` (stereo not drawn) [Glycerol oleate, glycerol monooleate] showed an HLB of 4.3. The value for “decaglycerol laurate [Decaglycerol monolaurate]” was 15.0.

On to diglycerol monooleate, for which the HLB is listed as 7.4.
